Results: ChEMBL document CHEMBL4402568, “Antiepileptic Drug Carbamazepine Binds to a Novel Pocket on the Wnt Receptor Frizzled-8” (J Med Chem, 2020)
The source made the active and inactive calls. The calls are words filed in the database; no cut-off is given here.

Columns and labels:
[1] = target: Frizzled-7 (Homo sapiens) (UniProt O75084); test: Binding affinity to immobilized human Frizzled-7 CRD (Q33 to G173 resideus) transfected with pDisplay_BirA-ER plasmid in HEK293T cells for biotinylation by surface plasmon resonance assay
[2] = target: Frizzled-8 (Mus musculus) (UniProt Q61091); settings: 8 to 64 uM
Description: Inhibition of full length mouse Frizzled-8 transfected in Frizzled-1/2/7 knockout HEK293T cells using lentiviral expression system cotransfected with Renilla luciferase assessed as reduction in Wnt3a signaling by measuring luciferase activity at 8 to 64 uM measured after 24 hrs by Dual-Glo luciferase reporter assay

[3] = target: Frizzled-5 (Homo sapiens) (UniProt Q13467); test: Binding affinity to immobilized human Frizzled-5 CRD (P31 to Y150 resideus) transfected with pDisplay_BirA-ER plasmid in HEK293T cells for biotinylation by surface plasmon resonance assay
[4] = target: Frizzled-8 (Mus musculus) (UniProt Q61091); test: Binding affinity to immobilized mouse C-terminal Rhinovirus 3C cleavage site-fused 6xHis-tagged Frizzled-8 CRD (Q33 to G173 resideus) transfected with pDisplay_BirA-ER plasmid in HEK293T cells for biotinylation assessed as protein-compound complex formation at 5 to 50 uM by surface plasmon resonance assay

Chain of Frizzled-8 (Mus musculus) (Q61091 whole entry, the tested form may be a part): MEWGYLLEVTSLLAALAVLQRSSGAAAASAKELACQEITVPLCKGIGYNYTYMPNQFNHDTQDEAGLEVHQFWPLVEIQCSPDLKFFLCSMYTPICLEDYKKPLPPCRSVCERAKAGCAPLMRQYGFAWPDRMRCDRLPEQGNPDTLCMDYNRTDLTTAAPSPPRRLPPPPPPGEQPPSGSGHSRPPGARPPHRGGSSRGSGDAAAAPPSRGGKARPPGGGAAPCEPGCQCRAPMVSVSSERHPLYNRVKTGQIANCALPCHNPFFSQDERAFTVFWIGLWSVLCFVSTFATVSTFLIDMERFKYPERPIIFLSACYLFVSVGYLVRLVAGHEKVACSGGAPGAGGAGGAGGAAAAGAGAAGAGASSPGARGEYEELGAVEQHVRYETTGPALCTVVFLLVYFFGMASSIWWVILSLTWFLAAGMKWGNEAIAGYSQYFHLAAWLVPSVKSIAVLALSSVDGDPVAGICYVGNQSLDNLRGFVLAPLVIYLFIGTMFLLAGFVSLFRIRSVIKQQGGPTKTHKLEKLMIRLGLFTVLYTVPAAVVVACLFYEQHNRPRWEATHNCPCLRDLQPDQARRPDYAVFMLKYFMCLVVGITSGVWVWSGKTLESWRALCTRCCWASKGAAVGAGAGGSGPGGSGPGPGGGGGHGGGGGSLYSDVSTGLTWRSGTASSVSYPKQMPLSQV
Chain of Frizzled-5 (Homo sapiens) (Q13467 whole entry, the tested form may be a part): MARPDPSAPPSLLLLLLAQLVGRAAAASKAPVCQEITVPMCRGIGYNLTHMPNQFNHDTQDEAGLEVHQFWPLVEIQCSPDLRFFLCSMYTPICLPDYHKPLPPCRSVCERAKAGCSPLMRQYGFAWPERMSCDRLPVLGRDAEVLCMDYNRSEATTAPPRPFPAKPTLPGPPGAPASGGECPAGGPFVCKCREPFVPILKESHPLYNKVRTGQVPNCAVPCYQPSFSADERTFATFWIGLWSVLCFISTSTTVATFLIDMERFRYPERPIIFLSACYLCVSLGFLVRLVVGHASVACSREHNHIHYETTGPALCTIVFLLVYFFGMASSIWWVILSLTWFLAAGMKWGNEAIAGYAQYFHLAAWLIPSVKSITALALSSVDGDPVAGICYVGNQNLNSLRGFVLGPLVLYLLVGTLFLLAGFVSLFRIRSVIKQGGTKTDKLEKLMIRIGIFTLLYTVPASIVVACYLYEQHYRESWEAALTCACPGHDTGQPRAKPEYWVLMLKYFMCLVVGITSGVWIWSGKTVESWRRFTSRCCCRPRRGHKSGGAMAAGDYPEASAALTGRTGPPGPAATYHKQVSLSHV

Activity [1]	inhibition [2]	Activity [3]	Activity [4]	Compound
inactive	Active	inactive	Active	NC(=O)N1c2ccccc2C=Cc2ccccc21
			inactive	CCN(CC)CCCC(C)Nc1c2ccc(Cl)cc2nc2ccc(OC)cc12 (stereo not given)
